# Reference: the METLIN SMRT retention time set (Domingo-Almenara et al. 2019)
# Experiment: gradient 5% acetonitrile 3 min, to 50% in 2 min, to 85% in 15 min, held 3 min, 100 µL/min
# Conditions: column: Zorbax Extend-C18 2.1 x 50 mm; eluents: water / acetonitrile, 0.1% formic acid
# In short: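 The mobile phases were water and acetonitrile, each with 0.1% formic acid, pumped at 100 μL/min through a Zorbax Extend-C18 column (2.1 × 50 mm, 1.8 μm). Pure standards were injected as mixtures of ~100 molecules and detected by a quadrupole time-of-flight mass spectrometer in positive and negative ionization mode. Retention time came from computationally picked adduct peaks, each inspected by hand.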
row,SMILES,RP-LC retention time [s]
1,O=c1c2cc([N+](=O)[O-])ccc2nc(CN2CCN(c3ccccn3)CC2)n1-c1ccccc1F,670
2,O=c1c(Nc2ccc(F)c(Cl)c2)nc2ccncc2n1Cc1ccccc1,831
3,O=C(O)C1CC(=O)N(c2ccc3c(c2)OCO3)C1 (configuration not stated),619
4,COCCNc1oc(-c2ccc([N+](=O)[O-])cc2)nc1C#N,766
5,Cc1ccc(Nc2cc(C)n3c(=O)n(Cc4cc(=O)n5ccccc5n4)nc3n2)cc1F,942
6,O=C(Cn1c2c(c(=O)n(C3CCCCC3)c1=O)CCC2)NCc1ccc2c(c1)OCO2,799
7,Cn1cnc(S(=O)(=O)N2CCc3c(c(-c4nncn4Cc4ccccc4)nn3C)C2)c1,682
8,COc1ccc(-c2nnc(-c3cccc(S(=O)(=O)N4CCCCCC4)c3)o2)cc1,1130
9,CN(C)C[C@@H]1CN(S(C)(=O)=O)C[C@H]1NC(=O)c1cccs1,569
10,O=S(=O)(NC1CCCCC1)c1ccc2c(c1)-c1oncc1CO2,673
11,COc1ccc(-c2noc(C3CCCN3C(=O)c3ccc(NC(C)=O)cc3)n2)cc1 (configuration not stated),752
12,Nc1ccccc1NC(=O)CCCCCC(=O)Nc1ccccc1,683
13,Cc1ccc(C)c(NC(=O)Cn2cnc3nc(N4CCC(C(=O)NC5CC5)CC4)sc3c2=O)c1,713
14,COc1ccc(C(=O)CSc2nnnn2-c2cccc(C)c2)cc1,941
15,Cc1cccc(-c2cc3n(n2)CCCN(C(=O)Cc2cccc(C(F)(F)F)c2)C3)c1,1030
16,O=C(COc1ccccc1)N1CCN(c2nc(CN3CCCCC3)cs2)CC1,636
17,CCOc1ccc(NC(=O)c2[nH]c3cc(C)sc3c2CN2CCOCC2)cc1,1160
18,CCOc1nccnc1NC1CCN(C(=O)c2cccs2)CC1,921
19,COc1ccc(-c2nc(-c3cccc(-c4ccn[nH]4)c3)no2)c(OC)c1,936
20,NC(=O)CCCCn1ccc(NC(N)=NCC(F)(F)F)n1,617
21,CCc1nnc(-c2ccc3ccn(CC(=O)NCc4ccc(OC)c(OC)c4)c3c2)o1,745
22,CC(C)=CC1C(C(=O)O)C1(C)C (configuration not stated),808
23,O=C(Cc1ccccc1Cl)NC1CCN(c2cc(-c3cccs3)[nH]n2)C1 (configuration not stated),738

row,SMILES,RP-LC retention time [s]
1,O=S(=O)(Cc1ccccc1F)N1CCC(c2noc(-c3cccnc3)n2)C1 (configuration not stated),826
2,CS(=O)(=O)N(C1CCOCC1)C1CN(C(=O)c2cc(F)ccc2F)C1,687
3,CC1CCN(c2nn(CC(=O)Nc3cccc(Cl)c3)c(=O)c3ccccc23)CC1,1210
4,COc1ccc(NC(=O)C2CN(S(=O)(=O)c3cccnc3)CC23CCCCC3)cc1 (configuration not stated),890
5,Cc1n[nH]c(C)c1CNC(=O)C1Cn2cccc2C(=O)N1C (configuration not stated),549
6,CCOc1ccc(-c2nc(-c3ccc4c(c3)ncn4CCC(=O)N3CCCC3)no2)cc1,825
7,O=C(c1cccs1)N1CCC2(CC1)N=C(c1ccc(Cl)cc1)NO2,844
8,CC(C)C(=O)N1CC(c2noc(C3CCCN3CC3CC3)n2)C1 (configuration not stated),579
9,Cn1nc(C(=O)Nc2ccccc2)c2c1CCN(C(=O)Nc1ccc(Br)cc1F)C2,956
10,CCN1C(=O)c2cccc3c(NC(=O)c4ccc(C(=O)OC)cc4)ccc1c23,638
11,Cc1cc(C)c2c(N3CCSCC3)nc(C(=O)N3CCN(c4ccccc4)CC3)nc2n1,722
12,CC(Oc1ccccc1)C(=O)N(C)CC1(C)CCOCC1 (configuration not stated),685
13,CCOc1ccc(NC(=O)c2cnc(-c3ccc(OC)cc3)nc2-c2ccncc2)cc1,875
14,O=C(N[C@H]1C[C@@H]2C[C@H]1N(C(=O)NCCc1ccccc1)C2)c1ccccc1,740
15,O=C(Cn1nc2c3cc(-c4ccccc4)nn3ccn2c1=O)NC1CCCCC1,873
16,O=C(NC1CCOCC1)c1ccc(-c2cc(-c3cn[nH]c3-c3ccccn3)ccn2)cc1,617
17,Cn1ncc2c(Nc3ccc(O)cc3)nc(Cl)nc21,731
18,CCOC(=O)c1c(S(=O)(=O)N2CCC(C(=O)Nc3cccc(OC)c3)CC2)c(C)n(CC)c1C,891
19,CCOc1ccc(NC(=O)CN2C(=O)c3ccccc3C2=O)c([N+](=O)[O-])c1,839
20,Cc1cc(N2CCN(C(=O)c3ccc(C#N)cc3)CC2)nc2nnc(C)n12,582
21,O=C(NC1CC1)C1CCCN(c2ncnc3c2oc2ccccc23)C1 (configuration not stated),632
22,CCN1CCN(c2ncc3c(n2)CCN(Cc2ccc(Cl)c(F)c2)C3)CC1,575
23,Cc1nc(C(=O)N2CC(F)(F)C[C@H]2c2nc(C3CC3)no2)co1,768

row,SMILES,RP-LC retention time [s]
1,CCN(CC)CCCNS(=O)(=O)c1cc(-c2cc(C)no2)cs1,619
2,COc1ccc(C)cc1NC(=O)N1CCCC1c1cc(C)on1 (configuration not stated),863
3,CCc1nc2nc3c(c(N4CCN(c5ccccn5)CC4)n2n1)CCC3,581
4,COc1ccc2sc(NCc3cccnc3)nc2c1,556
5,CCc1ccccc1S(=O)(=O)N1CCC(C(=O)NCc2csc(-c3cccs3)n2)CC1,950
6,Cc1ccccc1Nc1c(-c2ccc(Cl)cc2Cl)nc2cnccn12,1030
7,CCCCNC(=O)CCC1CCN(c2cc(NCCC)ncn2)CC1,658
8,CCOc1cccc(-c2noc(-c3nnn(Cc4nc(-c5cccc(C)c5)oc4C)c3C)n2)c1,1410
9,Cc1ccc(NC(=O)Cn2ncc3c(c2=O)N(CC2CC2)C(=O)CS3)cc1Cl,884
10,CCOc1ccccc1NC(=O)C1CCCN(c2nc3c(s2)c(C)nn3-c2ccccc2)C1 (configuration not stated),1300
11,O=C(c1ccc2snnc2c1)N1CCN(c2ccccn2)CC1,576
12,COc1ccc(OC)c(NC(=O)Cn2c(C)cc(-c3nnc(C)o3)c2C)c1,776
13,Cc1ccc(Sc2ccc(N3CCC(C(=O)N4CCN(c5ncccn5)CC4)CC3)nn2)cc1,741
14,CC1=NS(=O)(=O)N(Cc2ccccc2)C=C1C(=O)OCc1ccc(C)cc1,1170
15,COc1ccccc1N1CCN(C(=O)C2CCCN(c3ncnc4c3nc3n4CCCCC3)C2)CC1 (configuration not stated),766
16,Cc1cccc(N2CCN(C(=O)c3ccc(-c4csc(C5CC5)n4)cc3)CC2C)c1 (configuration not stated),1120
17,CCOC1CCN(C(=O)NC(C)(C)C)CC1,700
18,Cc1ccc(NC(=O)CSc2nnc3c4cc(-c5ccccc5)nn4ccn23)c(Cl)c1,957
19,CCOC(=O)c1ccccc1NC(=O)NCCn1c(C(F)(F)F)nc2cccnc21,917
20,Cc1ccc2c(c1)N(S(C)(=O)=O)CCC(C(=O)Nc1cccc(C)c1C)O2 (configuration not stated),945
21,CCOC(=O)c1oc2ccc(S(=O)(=O)N3CCCC(c4nn[nH]n4)C3)cc2c1C (configuration not stated),822
